Measurements as given in paper PMC6838323 (2019).

Experiments:
Assay in all cases: fluorescence (Cy3/DABCYL) titration, two-site fit
Conditions in all cases: 6 mM Mg2+; 10 mM Tris-HCl pH 7.5, 25 °C; 250 nM aptamer; apparent; ATP up to 6.75 mM
[1] = tested on: 6_36 (DNA, aptamer) CACCTGGGGGAGTATTGCGGAGGAAGGTTTTTTTTTTTTTTTCAGGTG
[2] = tested on: 8_25 (DNA, aptamer) CACCTGGGGGAGTATTGCGGAGGAAGGTTTTTTCCCAGGTG
[3] = tested on: 6_25 (DNA, aptamer) CACCTGGGGGAGTATTGCGGAGGAAGGTTTTCAGGTG
[4] = tested on: 8_36 (DNA, aptamer) CACCTGGGGGAGTATTGCGGAGGAAGGTTTTTTTTTTTTTTTTTCCCAGGTG
[5] = tested on: 6_33 (DNA, aptamer) CACCTGGGGGAGTATTGCGGAGGAAGGTTTTTTTTTTTTCAGGTG
[6] = tested on: 8_23 (DNA, aptamer) CACCTGGGGGAGTATTGCGGAGGAAGGTTTTCCCAGGTG
[7] = tested on: 7_25 (DNA, aptamer) CACCTGGGGGAGTATTGCGGAGGAAGGTTTTTCCAGGTG
[8] = tested on: 7_33 (DNA, aptamer) CACCTGGGGGAGTATTGCGGAGGAAGGTTTTTTTTTTTTTCCAGGTG
[9] = tested on: 9_36 (DNA, aptamer) CACCTGGGGGAGTATTGCGGAGGAAGGTTTTTTTTTTTTTTTTTTCCCCAGGTG
[10] = tested on: 8_33 (DNA, aptamer) CACCTGGGGGAGTATTGCGGAGGAAGGTTTTTTTTTTTTTTCCCAGGTG
[11] = tested on: 7_23 (DNA, aptamer) CACCTGGGGGAGTATTGCGGAGGAAGGTTTCCAGGTG
[12] = tested on: 9_25 (DNA, aptamer) CACCTGGGGGAGTATTGCGGAGGAAGGTTTTTTTCCCCAGGTG
[13] = tested on: 9_23 (DNA, aptamer) CACCTGGGGGAGTATTGCGGAGGAAGGTTTTTCCCCAGGTG
[14] = tested on: 7_43 (DNA, aptamer) CACCTGGGGGAGTATTGCGGAGGAAGGTTTTTTTTTTTTTTTTTTTTTTTCCAGGTG
[15] = tested on: 9_43 (DNA, aptamer) CACCTGGGGGAGTATTGCGGAGGAAGGTTTTTTTTTTTTTTTTTTTTTTTTTCCCCAGGTG
[16] = tested on: 9_33 (DNA, aptamer) CACCTGGGGGAGTATTGCGGAGGAAGGTTTTTTTTTTTTTTTCCCCAGGTG
[17] = tested on: 7_36 (DNA, aptamer) CACCTGGGGGAGTATTGCGGAGGAAGGTTTTTTTTTTTTTTTTCCAGGTG
[18] = tested on: 8_43 (DNA, aptamer) CACCTGGGGGAGTATTGCGGAGGAAGGTTTTTTTTTTTTTTTTTTTTTTTTCCCAGGTG
[19] = tested on: 6_23 (DNA, aptamer) CACCTGGGGGAGTATTGCGGAGGAAGGTTCAGGTG

KDeff [1]: 0.0107 ± 0.0019 mM
KDeff [2]: 2.29 ± 0.05 mM
KDeff [3]: 0.0262 ± 0.0095 mM
KDeff [4]: 0.352 ± 0.043 mM
KDeff [5]: 0.0182 ± 0.0076 mM
KDeff [6]: 3.58 ± 1.37 mM
KDeff [7]: 0.271 ± 0.038 mM
KDeff [8]: 0.0985 ± 0.0481 mM
KDeff [9]: 2.72 ± 1.47 mM
KDeff [10]: 0.734 ± 0.01 mM
KDeff [11]: 0.382 ± 0.034 mM
KDeff [12]: 12.8 ± 1.7 mM
KDeff [13]: 39.0 ± 35.7 mM
KDeff [14]: 0.0298 ± 0.0031 mM
KDeff [15]: 0.967 ± 0.085 mM
KDeff [16]: 4.98 ± 0.53 mM
KDeff [17]: 0.0709 ± 0.0018 mM
KDeff [18]: 0.388 ± 0.124 mM
KDeff [19]: 0.0314 ± 0.0111 mM
SMILES: Nc1ncnc2c1ncn2[C@@H]1O[C@H](COP(=O)(O)OP(=O)(O)OP(=O)(O)O)[C@@H](O)[C@H]1O
